From ChEMBL document CHEMBL4138122, “Azaphenothiazines - promising phenothiazine derivatives. An insight into nomenclature, synthesis, structure elucidation and biological properties” (Eur J Med Chem, 2017)
≈ marks a conversion by molar mass, not a printed value.

Key:
[1] = tested on: Staphylococcus aureus; assay: Antimicrobial activity against Staphylococcus aureus assessed as reduction in bacterial growth at 100 ppm relative to control; type: functional
[2] = tested on: Candida albicans; assay: Antimicrobial activity against Candida albicans assessed as reduction in […] growth at 100 ppm relative to control; type: functional
[3] = tested on: Trichophyton mentagrophytes; assay: Antimicrobial activity against Trichophyton mentagrophytes assessed as reduction in microbial growth at 100 ppm relative to control; type: functional
[4] = tested on: Aspergillus terreus; assay: Antimicrobial activity against Aspergillus terreus assessed as reduction in microbial growth at 100 ppm relative to control; type: functional
[5] = tested on: Aureobasidium pullulans; assay: Antimicrobial activity against Pullularia pullulans assessed as reduction in microbial growth at 100 ppm relative to control; type: functional
[6] = tested on: Staphylococcus aureus; assay: Antimicrobial activity against Staphylococcus aureus assessed as reduction in bacterial growth at 500 to 1000 ppm relative to control; type: functional
[7] = tested on: Candida albicans; assay: Antimicrobial activity against Candida albicans assessed as reduction in […] growth at 500 to 1000 ppm relative to control; type: functional
[8] = tested on: Trichophyton mentagrophytes; assay: Antimicrobial activity against Trichophyton mentagrophytes assessed as reduction in microbial growth at 1 to 10 ppm relative to control; type: functional
[9] = tested on: Aspergillus terreus; assay: Antimicrobial activity against Aspergillus terreus assessed as reduction in microbial growth at 1 to 10 ppm relative to control; type: functional
[10] = tested on: Bacillus subtilis; assay: Antimicrobial activity against Bacillus subtilis assessed as reduction in microbial growth at 1 to 10 ppm relative to control; type: functional
[11] = tested on: HOP-92; assay: Cytotoxicity against human HOP92 cells assessed as cell growth inhibition after 48 hrs by SRB assay; type: functional, cell-based; conditions: HOP-92, 48 h
[12] = tested on: MCF7; assay: Cytotoxicity against human MCF7 cells assessed as cell growth inhibition after 48 hrs by SRB assay; type: functional, cell-based; conditions: MCF7, 48 h
[13] = Inhibition of lipoxygenase in rat peritoneal cavity resident cells
[14] = Toxicity in rat assessed as survival rate at 50 mg/kg; type: organism-based; conditions: in vivo
[15] = tested on: Rattus norvegicus; assay: Antiinflammatory activity in rat assessed as inhibition of yeast-induced foot edema at 60 mg/kg; type: functional
[16] = tested on: Staphylococcus aureus; assay: Antibacterial activity against Staphylococcus aureus; type: functional; conditions: Staphylococcus aureus; read-out: MIC
[17] = tested on: Candida albicans; assay: microbe, parasite or virus in culture
[18] = tested on: Enterococcus faecalis; assay: Antibacterial activity against Enterococcus faecalis; type: functional
[19] = target: Cholinesterase (Equus caballus) (UniProt P81908); assay: Inhibition of horse serum BChE at 10 uM
[20] = target: Cholinesterase (Equus caballus, UniProt P81908); assay: Inhibition of horse serum BChE
[21] = tested on: Bacillus subtilis; assay: Antibacterial activity against Bacillus subtilis; type: functional; conditions: Bacillus subtilis
[22] = tested on: Bacillus cereus; assay: Antibacterial activity against Bacillus cereus; type: functional, organism-based
[23] = tested on: Aspergillus niger; assay: Antifungal activity against Aspergillus niger; type: functional
[24] = Antioxidant activity assessed as DPPH radical scavenging activity; type: functional; conditions: dose or concentration not given here
[25] = species: Mus musculus; assay: Antioxidant activity in Swiss albino mouse assessed as GSH level per mg tissue; type: functional
[26] = species: Mus musculus; assay: Antioxidant activity in Swiss albino mouse assessed as LPO level per mg tissue; type: functional
[27] = target: T1, Lipoxygenase (Glycine max, UniProt Q39829); assay: Inhibition of soybean lipoxygenase
[28] = tested on: Rattus norvegicus; assay: Anti-asthmatic activity in rat assessed as inhibition of egg albumin-induced duration of symptoms of dyspnoea at 3 mg/kg, po administered 90 mins prior to dyspnoea induction; type: functional
[29] = tested on: Human immunodeficiency virus; assay: Antiviral activity against HIV infected in human MT4 cells; type: functional, organism-based; conditions: Human immunodeficiency virus 1, MT4
[30] = tested on: Ancylostoma caninum; assay: Anthelmintic activity against dog hookworm larvae infected in mouse assessed as protection against infection rate at 0.06%; type: functional
[31] = tested on: Mycobacterium tuberculosis; assay: Antitubercular activity against Mycobacterium tuberculosis H37Rv; type: functional
[32] = tested on: Aspergillus niger; assay: Antifungal activity against Aspergillus niger by CLSI protocol based method; type: functional
[33] = tested on: Mus musculus; assay: Anti-inflammatory activity in IL1-induced paw inflammation Balb/c mouse model assessed as inhibition of neutrophil migration at 10 mg/kg, po, pretreated for 30 mins followed by IL1 challenge measured after 2 hrs by spectrophotometric method; type: functional
[34] = tested on: HUVEC; assay: Anti-inflammatory activity in human HUVEC cells assessed as reduction in TNFalpha-induced VCAM expression after 4 hrs by ELISA; type: functional, cell-based
[35] = tested on: HUVEC; assay: Anti-inflammatory activity in human HUVEC cells assessed as reduction in TNFalpha-induced E-selectin expression after 4 hrs by ELISA; type: functional, cell-based
[36] = target: Intercellular adhesion molecule 1 (Homo sapiens, UniProt P05362); assay: Inhibition of ICAM1 (unknown origin)
[37] = target: Vascular cell adhesion protein 1 (Homo sapiens, UniProt P19320); assay: Inhibition of VCAM1 (unknown origin)
[38] = target: T1, Lipoxygenase; assay: Inhibition of soybean lipoxygenase using linoleic acid as substrate preincubated for 5 mins followed by substrate addition measuredf after 7 mins by solution A/B solution based assay
[39] = tested on: SNB-19; assay: Cytotoxicity against human SNB19 cells incubated for 72 hrs by WST1 dye based assay; type: functional, cell-based; conditions: SNB-19, 72 h
[40] = Inhibition of LTB4 formation in rat polymorphonuclear leukocytes preincubated for 2 mins followed by A-23187 addition after 4 mins; type: functional, cell-based
[41] = tested on: Rattus norvegicus; assay: Anti-asthmatic activity in rat assessed as inhibition of egg albumin-induced duration of symptoms of dyspnoea at 5 mg/kg, po administered 90 mins prior to dyspnoea induction; type: functional
[42] = tested on: Escherichia coli; assay: Antibacterial activity against Escherichia coli; type: functional; conditions: Escherichia coli
[43] = tested on: Salmonella typhimurium; assay: Antibacterial activity against Salmonella typhimurium; type: functional, Salmonella enterica subsp. enterica serovar Typhimurium; conditions: Salmonella enterica
[44] = tested on: MCF7; assay: Cytotoxicity against human MCF7 cells incubated for 72 hrs by WST1 dye based assay; type: functional, cell-based; conditions: MCF7, 72 h
[45] = tested on: C32; assay: Cytotoxicity against human C32 cells incubated for 72 hrs by WST1 dye based assay; type: functional, cell-based; conditions: C32, 72 h
[46] = tested on: HFF-1; assay: Cytotoxicity against human HFF1 cells incubated for 72 hrs by WST1 dye based assay; type: cell-based; conditions: HFF-1, 72 h

Cholinesterase (Equus caballus), sequence (P81908 whole entry): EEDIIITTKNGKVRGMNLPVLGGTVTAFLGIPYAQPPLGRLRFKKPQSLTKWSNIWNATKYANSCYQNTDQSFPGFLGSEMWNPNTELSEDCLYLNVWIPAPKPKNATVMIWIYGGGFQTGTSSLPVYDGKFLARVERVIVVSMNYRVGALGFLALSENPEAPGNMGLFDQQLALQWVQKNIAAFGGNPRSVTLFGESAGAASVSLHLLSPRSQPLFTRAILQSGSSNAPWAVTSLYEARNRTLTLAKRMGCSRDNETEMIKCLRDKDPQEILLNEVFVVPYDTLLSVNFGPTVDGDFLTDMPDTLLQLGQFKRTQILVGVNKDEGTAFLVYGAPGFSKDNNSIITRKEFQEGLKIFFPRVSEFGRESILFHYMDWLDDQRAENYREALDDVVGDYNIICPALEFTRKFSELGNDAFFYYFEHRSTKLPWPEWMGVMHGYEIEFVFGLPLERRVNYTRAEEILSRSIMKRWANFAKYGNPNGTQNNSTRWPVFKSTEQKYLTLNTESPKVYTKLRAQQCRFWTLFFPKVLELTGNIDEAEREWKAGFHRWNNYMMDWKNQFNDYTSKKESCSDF
Cholinesterase, sequence (P81908 whole entry): as above
Intercellular adhesion molecule 1, sequence (P05362 whole entry): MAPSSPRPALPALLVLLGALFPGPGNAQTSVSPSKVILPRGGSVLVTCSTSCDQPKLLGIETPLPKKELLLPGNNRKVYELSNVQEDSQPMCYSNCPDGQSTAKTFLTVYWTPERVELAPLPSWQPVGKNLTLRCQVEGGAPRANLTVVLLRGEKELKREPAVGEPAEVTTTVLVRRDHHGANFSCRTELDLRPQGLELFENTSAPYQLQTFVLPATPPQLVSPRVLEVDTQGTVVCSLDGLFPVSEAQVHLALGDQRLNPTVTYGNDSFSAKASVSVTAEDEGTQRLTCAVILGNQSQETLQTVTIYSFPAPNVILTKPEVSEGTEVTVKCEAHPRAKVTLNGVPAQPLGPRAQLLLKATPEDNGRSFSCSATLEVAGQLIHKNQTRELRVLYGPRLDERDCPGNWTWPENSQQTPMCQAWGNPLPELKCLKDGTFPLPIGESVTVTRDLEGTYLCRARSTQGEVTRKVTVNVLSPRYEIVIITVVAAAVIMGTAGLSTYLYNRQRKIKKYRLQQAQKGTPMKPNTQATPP
Vascular cell adhesion protein 1, sequence (P19320 whole entry): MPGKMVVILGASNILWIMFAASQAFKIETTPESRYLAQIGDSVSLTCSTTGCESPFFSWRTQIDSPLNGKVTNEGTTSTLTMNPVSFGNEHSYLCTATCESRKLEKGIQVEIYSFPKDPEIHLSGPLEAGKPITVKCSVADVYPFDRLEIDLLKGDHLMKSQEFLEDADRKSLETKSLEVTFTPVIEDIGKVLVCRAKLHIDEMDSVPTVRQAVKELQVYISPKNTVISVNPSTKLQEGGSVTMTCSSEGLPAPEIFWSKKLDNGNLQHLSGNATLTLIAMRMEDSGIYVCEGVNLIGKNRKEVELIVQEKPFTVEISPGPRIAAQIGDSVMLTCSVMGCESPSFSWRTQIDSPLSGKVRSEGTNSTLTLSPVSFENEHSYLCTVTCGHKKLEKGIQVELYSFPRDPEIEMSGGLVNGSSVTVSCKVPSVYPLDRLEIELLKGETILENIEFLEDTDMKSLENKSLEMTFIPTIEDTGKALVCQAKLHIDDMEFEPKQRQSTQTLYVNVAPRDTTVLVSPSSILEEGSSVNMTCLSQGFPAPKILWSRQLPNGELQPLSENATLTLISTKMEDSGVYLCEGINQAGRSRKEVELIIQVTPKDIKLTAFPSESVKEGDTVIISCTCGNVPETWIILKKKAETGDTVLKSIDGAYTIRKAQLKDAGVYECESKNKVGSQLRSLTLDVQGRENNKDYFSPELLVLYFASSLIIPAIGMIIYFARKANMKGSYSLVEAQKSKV

## Clc1nc2c(nc1Cl)N(CCCN1CCCC1)c1ccccc1S2
[1]
  inhibition at 100 ppm: 100%
[2]
  inhibition at 100 ppm: 100%
[3]
  inhibition at 100 ppm: 100%
[4]
  inhibition at 100 ppm: 100%
[5]
  inhibition at 100 ppm: 100%

## [O-][S+]1c2ccccc2Nc2nc(Cl)c(Cl)nc21 (stereo unspecified)
[6]
  inhibition (INH): 100%
[7]
  inhibition (INH): 100%
[8]
  inhibition (INH): 100%
[9]
  inhibition (INH): 100%
[10]
  inhibition (INH): 100%

## CN(C)CCCN1c2nc3ccccc3cc2Sc2cc3ccccc3nc21
[11]
  IC50: ≤ 1 µM
[12]
  IC50: ≤ 1 µM

## Cn1c(=O)nc2sc3ccccc3nc-2c1=O
[13]
  IC50: 1.4 µM
[14]
  survival: 69%
[15]
  inhibition in vivo at 60 mg/kg: 69%

## Nc1nc(O)c2c(n1)N=c1c(c3c(c4ccccc14)=Nc1ccccc1S3)S2
[16]
  MIC: 79.4 µg/mL (≈ 198 µM)
[17]
  MIC: 91.2 µg/mL (≈ 227 µM)

## Cc1ccc2c(c1)Sc1c[n+](C)c3ccccc3c1N2.[Cl-]
[18]
  MIC: 11 µg/mL

## CN1CCCCC1CCN1c2ccc(Cl)cc2Sc2cc3ccccc3nc21 (stereo unspecified)
[19]
  inhibition: 99.9%
[20]
  IC50: 0.122 µM

## CCSc1ncc2c(n1)N=c1c(c3c(c4ccccc14)=Nc1nc(SCC)nc(O)c1S3)S2
[21]
  MIC: 63.3 µg/mL (≈ 124 µM)
[16]
  MIC: 39.8 µg/mL (≈ 78.2 µM)
[22]
  IC50: 50.5 µg/mL (≈ 99.3 µM)
[23]
  MIC: 60.3 µg/mL (≈ 119 µM)

## COc1cccc2c3c(c4nc5ccccc5c(=O)n4c12)Sc1cc(C)ccc1N3
[24]
  inhibition: 45.6 to 47.3%
[25]
  Activity: 6.8 nM
[26]
  Activity: 4.5 to 4.6 nM

## CCCc1nc(N2CCN(C)CC2)nc2c1Nc1ccccc1S2
[27]
  IC50: 8.9 µM

## Clc1nc2c(nc1Cl)N(CCC1CCCN1)c1ccccc1S2 (stereo unspecified)
[1]
  inhibition at 100 ppm: 100%
[2]
  inhibition at 100 ppm: 100%
[3]
  inhibition at 100 ppm: 100%
[4]
  inhibition at 100 ppm: 100%
[5]
  inhibition at 100 ppm: 100%

## COc1ccc2c(c1)[S+]([O-])c1nccnc1N2C (stereo unspecified)
[28]
  inhibition in vivo at 3 mg/kg: 12.5%

## CCOCn1c(=O)[nH]c2c(c1=O)Nc1ccc(C)cc1S2
[29]
  IC50: 4.58 µM

## Clc1nc2c(nc1Cl)Sc1ccccc1N2
[30]
  Activity: 90%

## CSc1ccc2c(c1)Sc1cc3ccccc3nc1N2CCC1CCCCN1C (stereo unspecified)
[19]
  inhibition: 99.9%
[20]
  IC50: 0.0244 µM

## O=c1[nH]c2ccc(Cl)cc2c2c1Sc1cc(Cl)ccc1N2
[31]
  MIC: > 6.25 µg/mL

## CC(=O)N1CCN(c2ccc(OCC3COC(Cn4ccnc4)(c4ccc(Cl)cc4Cl)O3)cc2)CC1 (stereo unspecified) [KETOCONAZOLE]
[32]
  MIC: 136 µg/mL (≈ 255 µM)
[23]
  MIC: 136 µg/mL (≈ 255 µM)
[17]
  MIC: 62.2 µg/mL (≈ 117 µM)

## O=c1[nH]c2c(c(=O)[nH]1)Nc1ccccc1S2 [PYRIMIDOBENZOTHIAZINE]
[13]
  IC50: 5.3 µM

## CN(C)S(=O)(=O)NC1CCN(Cc2ccc3c(c2)Nc2nccnc2S3)CC1
[33]
  inhibition in vivo at 10 mg/kg: 83.4 to 89.7%
[34]
  IC50: 0.36 µM
[35]
  IC50: 0.55 µM
[36]
  IC50: 0.27 to 1.4 µM
[37]
  IC50: 4.5 µM

## CCN1CCN(c2nc(C)c3c(n2)Sc2ccccc2N3)CC1
[38]
  IC50: 40.7 µM

## C=CCN1c2cccnc2Sc2cccnc21
[39]
  IC50: 18.9 µg/mL (≈ 78.3 µM)

## Oc1ccc2c(c1)Sc1nccnc1N2
[40]
  IC50: 0.05 to 1 µg/mL (≈ 0.23 to 4.6 µM)
[28]
  inhibition in vivo at 3 mg/kg: 43%
[41]
  inhibition in vivo at 5 mg/kg: 47%

## O=C(O)c1cn(C2CC2)c2c3c(c(F)cc2c1=O)Sc1ccccc1N3
[42]
  MIC: 0.75 µg/mL (≈ 2.04 µM)
[22]
  MIC: 3 µg/mL (≈ 8.14 µM)
[43]
  MIC: 6 µg/mL (≈ 16.3 µM)

## c1cnc2c(c1)Nc1ncccc1S2
[44]
  IC50: 4.8 µg/mL (≈ 23.9 µM)
[45]
  IC50: 7.5 µg/mL (≈ 37.3 µM)
[46]
  IC50: ≥ 50 µg/mL

## O=[N+]([O-])c1ccc2c(c1)N=c1c(c3c(c4ccccc14)=Nc1ccccc1S3)O2
[21]
  MIC: 45.7 µg/mL (≈ 115 µM)
[17]
  MIC: 100 µg/mL (≈ 252 µM)

## CN(C)CCCN1c2ccccc2Sc2nc(Cl)c(Cl)nc21
[1]
  inhibition at 100 ppm: 100%
[2]
  inhibition at 100 ppm: 100%
[3]
  inhibition at 100 ppm: 100%
[4]
  inhibition at 100 ppm: 100%
[5]
  inhibition at 100 ppm: 100%
